Laboratory results taken from patent publication US20250017942A1, “Prevention and treatment of osteoarticular diseases by inhibiting acetylcholinesterase” (priority 2021, published 2025).
Where a name gives a salt, the structure may show the parent alone.

Columns and labels:
[1] = target: AChE (rat cortex homogenate) (Rattus norvegicus, UniProt P37136); assay: biochemical; format: biochemical; conditions: for IC50: rat cortex homogenate, in the presence of ethopropazine as a specific BuChE inhibitor
RAW 264.7 cells = assay: RANKL-induced osteoclastogenesis of RAW 264.7 cells; format: cell-based, mouse; conditions: RAW 264.7, RANKL 15 ng/ml 3 days, 0.1, 0.5 and 1 μM (FIG. 9)
ATDC5 cells = assay: IL-1β-stimulated ATDC5 cells, marker expression by qPCR; format: cell-based, mouse; conditions: 10 ng/ml IL-1β, 24 h, qPCR (FIG. 3A)

Sequence of AChE (rat cortex homogenate) (P37136 32-614): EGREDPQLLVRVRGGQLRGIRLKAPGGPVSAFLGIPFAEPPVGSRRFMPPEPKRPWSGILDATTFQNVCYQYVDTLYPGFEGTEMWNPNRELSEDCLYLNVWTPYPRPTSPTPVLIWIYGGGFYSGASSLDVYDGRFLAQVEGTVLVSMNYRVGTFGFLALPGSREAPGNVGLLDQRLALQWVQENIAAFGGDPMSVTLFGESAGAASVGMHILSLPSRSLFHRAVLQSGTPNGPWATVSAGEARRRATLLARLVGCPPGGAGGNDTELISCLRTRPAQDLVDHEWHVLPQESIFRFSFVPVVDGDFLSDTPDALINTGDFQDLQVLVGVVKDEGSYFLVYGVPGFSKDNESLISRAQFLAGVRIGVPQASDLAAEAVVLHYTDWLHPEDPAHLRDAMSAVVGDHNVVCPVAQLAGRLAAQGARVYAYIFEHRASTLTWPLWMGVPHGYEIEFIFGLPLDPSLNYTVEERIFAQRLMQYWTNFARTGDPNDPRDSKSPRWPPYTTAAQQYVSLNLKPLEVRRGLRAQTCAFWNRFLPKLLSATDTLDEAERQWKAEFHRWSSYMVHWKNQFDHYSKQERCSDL

Row | SMILES | IC50 [1] | Potency in inhibiting rat brain AChE relative to HA [1] | Potency in inhibiting rat brain AChE relative to tacrine [1] | Osteoclastogenesis (RAW 264.7 cells) | Pro-inflammatory cytokine expression after IL-1β stimulation (ATDC5 cells)
1 | O=c1ccc2c([nH]1)CCCC2NCCCCCCCCCCCNC1CCCc2[nH]c(=O)ccc21 (stereo not drawn) [E11E] | 84 ± 5 nM | – | – | – | –
2 | O=c1ccc2c([nH]1)CCC[C@@H]2NCCCCCCCCCCCCN[C@H]1CCCc2[nH]c(=O)ccc21 [E12E, (S,S)-(−)-N, N′-di-5′-(5′, 6′7′,8′-tetrahydroquinolin-2-onyl)-1,12-diaminododecane, bis-hydrochloride] | – | about twice as potent as HA | about 4.4 times | suppressed osteoclastogenesis in a dose-dependent manner | down-regulating key pro-inflammatory cytokines including TNF-alpha
3 | O=c1ccc2c([nH]1)CCCC2NCCCCCCCCCCCCCNC1CCCc2[nH]c(=O)ccc21 (stereo not drawn) [E13E] | 52 ± 9 nM | – | – | – | –
